“Also recorded” adds a separate entry of the source. Numbered stars: 1 amine (or outer) side, 2 acyl side, 3 side chain; on linkers, the order of the positions; unused ones are H or OH. Peptide text beside a SMILES is read from it. * marks the point of attachment. X1 = Brc1ccc2c(c1)-c1cc(N*)ccc1C2; Suc = O=C(CCC(=O)[*:2])[*:1]
Tests used:
Format in all cases: in vivo
Myzus persicae [1] = assay: Topical application by spraying, Potter Spray Tower; conditions: 3000 μl, 1×10^−5M of each peptide in ATPlus 0.1%, counted 48 hours post spray
Protocol: Aphids were exposed to test peptides in the absence of additional external stress conditions.
Brassica rapa (Chinese cabbage; Wong Bok) were infested with 30 adult Myzus persicae aphids per plant. Aphids were left at least 2 hours to settle and begin feeding from the host plant.
Spraying took place inside a designated spray room. To ensure spray tracking, all sprayed solutions had amaranth dye added.
Potter Spray Tower (Burkard Manufacturing) was ‘primed’ by spraying 1000 μl of liquid coating the inside of the tower. Two controls were used:
i) vehicle spray only (Croda ATPlus UEP 100 LQ-(CQ) 0.1% v/v); and ii) Imidacloprid positive control (28.3 μM).
Imidacloprid was always applied last and via a second, separate, Potter Tower, to prevent any possibility of stray pesticide being left inside the tower and contaminating a test peptide-applied plant.
Spray volumes for all solutions were 3000 μl. The 6.9 mm spray head was loaded with 3000 μl of a 1×10^−5M peptide solution diluted in ATPlus 0.1%. After spraying was completed the plant was allowed to rest on the spray platform for 30 seconds to allow settling of the sprayed chemical.
For this experiment there were three test conditions: 1895 alone (1×10^−5M); 2129 alone (1×10^−5M); and a simultaneous co-application of 1895+2129 together (1×10^−5M of each peptide).
Post peptide application, each condition was placed into its own individual Bugdorm (Watkins and Doncaster, 44545), to prevent repulsed or displaced aphids moving from one condition to another. Numbers of alive and dead aphids on the plant were counted 48 hours post spray, and the presence of any fresh nymphs noted. Plants were watered prior to spraying but not afterwards to eliminate the possibility of drowning any aphids present or washing off the sprayed liquid.
Post spraying, the spray head was filled with over 3000 μl of 70% ethanol and sprayed until empty. The spray head was carefully removed and rinsed with 70% ethanol as some amaranth dye was observed on the spray head. […]

Myzus persicae [2] = assay: Desiccation/starvation tolerance assay after peptide microinjection; conditions: for Reduction of LTime50 relative to control / Reduction of median survival relative to control: M. persicae, desiccation/starvation stress; for Documented effect on desiccation/starvation mortality / LTime50 (h), test / Median ± IQR survival (h), test: Myzus persicae, microinjection; for Documented effect on desiccation/starvation mortality: final concentration ×10^−5 M, relative to vehicle control; for LTime50 (h), test / Median ± IQR survival (h), test: ×10^−5 M, desiccation and starvation stress, test group
Protocol: (§1) Neuropeptides were administered to test aphids via microinjection to allow for rapid mass screening of neuropeptide analogue efficacy. For this, native neuropeptides were diluted in double distilled water (DDH2O) to a concentration of 1×10^−5 M. Neuropeptide analogues were diluted in DDH2O to the following concentrations: kinin analogues 1728 (2.5×10^−5 M), 2139 (3.5×10^−5 M), 2139-Ac (3.5×10^−5 M); CAP2b analogues 1895 (3.5×10^−5 M), 1896 (3.5×10^−5 M), 1902 (3.5×10^−5 M), 2089 (3.9×10^−5 M), 2123 (1.0×10^−5 M), 2125 (1.0×10^−5 M), 2129 (2.0×10^−5 M). Once at the desired concentration, neuropeptide solutions were administered to test aphids at an injection volume of 9 nl based on total haemolymph volume, to produce an approximate 1:20 dilution of injection volume to haemolymph. Injections were performed using a pulled glass needle and a Nanoject II Auto-Nanoliter Injector (Drummond Scientific Company, Broomall, Pa.). A vehicle control was set up for each treatment/day of experiments to account for variation in needle pulling. For this, control aphids were injected with 9 nl of DDH2O and subsequently exposed to the same experiments as aphids receiving the neuropeptide treatment. Neuropeptide treated and vehicle control aphids were subsequently used in the stress bioassays detailed below.
(§2) Anholocyclic adults of mixed age of either M. persicae or M. rosae were selected from the stock cultures and treated with a native neuropeptide or neuropeptide analogue via microinjection using the method detailed above. Treated and vehicle control aphids were allowed to recover on excised leaves of the host plant for 1 h before being placed in an empty ventilated microcage (L=4 cm, 0=9.5 cm) at densities of 10 per cage. In total, 30-40 aphids were treated for each neuropeptide treatment group and a further 30-40 for the associated vehicle control group. From the point of placement in the microcage (taken as 0 h), aphid survival was checked every hour during daylight hours and approximately every 4 h during night-time hours until the final aphid died. Survival data were subsequently analysed using a Log-rank (Mantel-Cox) text in GraphPad Prism version 7.0. LTime50 (the time taken to kill 50% of the test population) values were calculated via Probit Analysis in Minitab 17 (Minitab Inc., State College, Pa.).

Macrosiphum rosae = assay: as above; conditions: for Reduction of LTime50 relative to control / Reduction of median survival relative to control: M. rosae, desiccation/starvation stress; for Documented effect on desiccation/starvation mortality / LTime50 (h), test / Median IQR survival (h), test: Macrosiphum rosae, microinjection; for Documented effect on desiccation/starvation mortality: final concentration ×10^−5 M, relative to vehicle control; for LTime50 (h), test / Median IQR survival (h), test: ×10^−5 M, desiccation and starvation stress, test group
Protocol: as §1, §2

CC[C@H](C)[C@H](NC(=O)[C@H](CCCNC(=N)N)NC(=O)[C@@H]1CCCN1C(=O)[C@@H](NC(=O)[C@H](C)NC(=O)CCC(=O)Nc1ccc2c(c1)-c1cc(Br)ccc1C2)[C@@H](C)O)C(N)=O [compound 2129, 2Abf-Suc-ATPRI-NH2] ({X1-Suc}-ATPRI-NH2)
% Lethality (Myzus persicae [1]): 32% | Reduction of LTime50 relative to control (Myzus persicae [2]): 7.1 h | Reduction of median survival relative to control (Myzus persicae [2]): 9.8 h | Documented effect on desiccation/starvation mortality (Myzus persicae [2]): significantly increase mortality relative to the control; also recorded: significantly increased desiccation/starvation mortality; also recorded: Increases | LTime50 (h), test (Myzus persicae [2]): 15.9 | 8.8 h | Median ± IQR survival (h), test (Myzus persicae [2]): 17.8 ± 12.0 | 8.0 ± 17.0 h | Reduction of LTime50 relative to control (Macrosiphum rosae): 11.6 h | Reduction of median survival relative to control (Macrosiphum rosae): 12.8 h | Documented effect on desiccation/starvation mortality (Macrosiphum rosae): significantly increase mortality relative to the control; also recorded: significantly increased desiccation/starvation mortality; also recorded: Increases | LTime50 (h), test (Macrosiphum rosae): 24.3 | 12.7 h | Median IQR survival (h), test (Macrosiphum rosae): 23.8 ± 20.5 | 11.0 ± 13.0 h

2Abf-Suc-FGPRL-NH2 [compound 1895]
% Lethality (Myzus persicae [1]): 34% | Reduction of LTime50 relative to control (Myzus persicae [2]): 3.5 h | Reduction of median survival relative to control (Myzus persicae [2]): 4.0 h | Documented effect on desiccation/starvation mortality (Myzus persicae [2]): significantly increase mortality relative to the control; also recorded: significantly increased desiccation/starvation mortality; also recorded: Increases | LTime50 (h), test (Myzus persicae [2]): 15.9 | 12.4 h | Median ± IQR survival (h), test (Myzus persicae [2]): 17.8 ± 12.0 | 13.8 ± 11.8 h | Reduction of LTime50 relative to control (Macrosiphum rosae): 9.6 h | Reduction of median survival relative to control (Macrosiphum rosae): 10.5 h | Documented effect on desiccation/starvation mortality (Macrosiphum rosae): significantly increase mortality relative to the control; also recorded: significantly increased desiccation/starvation mortality; also recorded: Increases | LTime50 (h), test (Macrosiphum rosae): 18.7 | 9.1 h | Median IQR survival (h), test (Macrosiphum rosae): 17.5 ± 19.5 | 7.0 ± 12.5 h

Reference: US20220039395A1, “INSECT CONTROL AGENTS” (priority 2018, published 2022)
